Measurements taken from patent publication US9765022B2, “Disulfide compounds for delivery of pharmaceutical agents” (Tufts University, priority 2013, dated 2017).

Test system: 4T1-12B breast tumors
Assay: In vivo cancer treatment, tumor growth inhibition
Parameters: species or system BALB/c mice
Settings: tail-vein injection every three days, 5.5 mg/kg lipid and 330 μg/kg saporin
Experimental: Composition 31 (i.e., containing 1-O16B and saporin) and Composition 32 (i.e., containing 1-O18B and saporin) were tested for in vivo inhibiting tumor growth following the procedure described below. More specifically, BALB/c mice bearing 4T1-12B breast tumors were developed from a 4T1-12B cell suspension in DMEM supplemented with 10% FBS at a concentration of 10^7 cells/mL. An aliquot (100 μL) of the cell suspension was injected into the mammary fat pad of 4-6 week-old female BALB/c mice. The mice were sorted into four groups randomly (n=7 for treatment group, n=5 for control groups) seven days after the injection. The mice were injected through tail-vein every three days. For the treatment group, each mouse was injected with 5.5 mg/kg of 1-O16B or 1-O18B and 330 μg/kg of saporin. Tumor volumes were measured every three days.
PBS without 1-O16B, 1-O18B, and saporin was also injected as a control. Comparative studies were also conducted using saporin in PBS without 1-O16B and 1-O18B.

saporin
tumor size (Day 16): more than 120 mm^3 | tumor size (Day 22): more than 250 mm^3
